Measured values taken from patent US8895769B2, “Silicon-containing carboxylic acid derivative” (Kemphys Ltd., priority 2011, dated 2014).

Experiments:
rat Chung model = test: Analgesic action test using Chung model; assay type: in vivo; details: single oral administration, 30 minutes after, physical stimulation, N=6
Method: A rat Chung model was used. 4-Amino-3-(trimethylsilyl)butanoic acid (Compound A), 4-amino-3-(trimethylsilylmethyl)butanoic acid (Compound B), 4-amino-3-[(1-methyl-1-silacyclopentan-1-yl)methyl]butanoic acid (Compound C), 4-(1-methyl-1-silacyclohexan-1-yl)-3-cyanobutanoic acid (Compound D), and pregabalin (positive control, Compound E) were each orally administered once to the rats, and analgesic action was examined 30 minutes thereafter on the basis of pain threshold values obtained with a physical stimulation (total number of groups: 11, N=6). As a result, the pain threshold values (g) of the agent-administered groups and the control group were as follows. • Control (0.5% MC): 5.3±0.4 • Compound A: 7.8±0.5 (60 mg/kg), 6.2±0.4 (20 mg/kg) • Compound B: 7.9±0.4 (60 mg/kg), 5.4±0.2 (20 mg/kg) • Compound C: 8.8±0.3 (60 mg/kg), 5.7±0.6 (20 mg/kg) • Compound D: 7.3±0.5 (60 mg/kg), 4.8±0.2 (20 mg/kg) • Compound E: 8.3±0.2 (30 mg/kg), 6.3±0.3 (10 mg/kg)

gabapentin receptor = biological target: T1, gabapentin receptor (Rattus norvegicus, UniProt P54290); test: Binding to gabapentin receptor (inhibition of [3H]gabapentin binding); details: compound 1 μM; 0.02 μM [3H] gabapentin; receptor from brains of Wister rats
T1 construct: a gabapentin receptor was prepared from the brains of Wister rats; from tissue; host or cells: Wistar rat brain, prepared by the method of Suman-Chauhan et al. 1993
Method: According to the method of Suman-Chauhan et al. (Eur. J. Pharmacol, 244 (3), pp. 293-301, 1993), a gabapentin receptor was prepared from the brains of Wister rats. Binding of the following compounds (1 μM) to the gabapentin receptor was investigated on the basis of inhibition of binding of gabapentin in the presence of 0.02 μM [^3H] gabapentin. As a result, the following inhibition ratios were observed. • 4-Amino-3-(trimethylsilyl)butanoic acid: 35% • 4-Amino-3-(t-butyldimethylsilyl)butanoic acid: 13% • 4-Amino-3-(trimethylsilylmethyl)butanoic acid: 28% • 4-Amino-3-(dimethyl-n-octylsilyl)butanoic acid: 32%

T1 sequence (P54290 25-944 limits assumed): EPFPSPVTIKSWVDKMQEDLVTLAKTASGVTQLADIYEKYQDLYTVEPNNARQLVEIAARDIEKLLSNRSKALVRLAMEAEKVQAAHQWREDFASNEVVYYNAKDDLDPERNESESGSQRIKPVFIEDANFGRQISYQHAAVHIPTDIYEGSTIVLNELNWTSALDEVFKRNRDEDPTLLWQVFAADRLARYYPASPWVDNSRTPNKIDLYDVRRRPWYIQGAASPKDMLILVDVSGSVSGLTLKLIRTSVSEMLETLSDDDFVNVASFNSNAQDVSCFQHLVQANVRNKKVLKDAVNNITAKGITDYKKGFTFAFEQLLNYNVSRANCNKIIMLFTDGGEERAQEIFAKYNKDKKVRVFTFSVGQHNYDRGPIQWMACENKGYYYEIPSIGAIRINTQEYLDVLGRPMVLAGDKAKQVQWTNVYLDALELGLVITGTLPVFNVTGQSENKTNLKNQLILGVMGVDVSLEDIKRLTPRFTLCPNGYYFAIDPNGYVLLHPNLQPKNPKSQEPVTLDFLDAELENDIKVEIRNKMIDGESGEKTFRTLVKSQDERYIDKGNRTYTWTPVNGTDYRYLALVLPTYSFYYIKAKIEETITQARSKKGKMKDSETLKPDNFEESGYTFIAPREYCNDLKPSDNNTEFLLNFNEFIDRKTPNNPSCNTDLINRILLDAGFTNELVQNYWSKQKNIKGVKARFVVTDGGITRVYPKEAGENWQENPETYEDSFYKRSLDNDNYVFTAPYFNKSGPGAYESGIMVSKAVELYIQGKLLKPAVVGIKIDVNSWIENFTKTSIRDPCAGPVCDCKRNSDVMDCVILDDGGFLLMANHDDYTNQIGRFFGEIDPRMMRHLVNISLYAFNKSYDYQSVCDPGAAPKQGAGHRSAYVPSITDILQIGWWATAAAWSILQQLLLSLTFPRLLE
T1 sequence (P54290 945-1091 limits assumed): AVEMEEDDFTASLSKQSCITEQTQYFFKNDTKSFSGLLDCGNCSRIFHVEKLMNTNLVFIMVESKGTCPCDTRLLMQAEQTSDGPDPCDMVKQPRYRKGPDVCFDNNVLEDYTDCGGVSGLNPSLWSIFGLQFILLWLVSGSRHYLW

Compound | melting point [°C] | pain threshold value (rat Chung model; 20 mg/kg) [g] | pain threshold value (rat Chung model; 60 mg/kg) [g] | inhibition ratio (inhibition of binding of gabapentin) (gabapentin receptor) [%] | other results
C[Si]1(CC(CN)CC(=O)O)CCCCC1 (stereo not drawn) | 140.5 to 143 |  |  |  | 
C[Si](C)(C)CC(CN)CC(=O)O (stereo not drawn) [Compound B, 4-amino-3-(trimethylsilylmethyl)butanoic acid] |  | 5.4 ± 0.2 | 7.9 ± 0.4 | 28 | 
CC(C)(C)[Si](C)(C)C(CN)CC(=O)O (stereo not drawn) [4-amino-3-(tert-butyldimethylsilyl)butanoic acid] |  |  |  | 13 | 
CC(C)C[C@H](CN)CC(=O)O [Compound E, (S)-3-(aminomethyl)-5-methylhexanoic acid, reference compound] |  |  |  |  | pain threshold value (rat Chung model; 10 mg/kg): 6.3 ± 0.3 g; pain threshold value (rat Chung model; 30 mg/kg): 8.3 ± 0.2 g
C[Si]1(CC(CN)CC(=O)O)CCCC1 (stereo not drawn) [Compound C, 4-amino-3-[(1-methyl-1-silacyclopentan-1-yl)methyl]butanoic acid] | 133 to 135 | 5.7 ± 0.6 | 8.8 ± 0.3 |  | 
C[Si]1(CC(C#N)CC(=O)O)CCCCC1 (stereo not drawn) [Compound D, 4-(1-methyl-1-silacyclohexan-1-yl)-3-cyanobutanoic acid] |  | 4.8 ± 0.2 | 7.3 ± 0.5 |  | 
CCCCCCCC[Si](C)(C)C(CN)CC(=O)O (stereo not drawn) [4-amino-3-(dimethyl-n-octylsilyl)butanoic acid] |  |  |  | 32 | 
C[Si]1(C(CN)CC(=O)O)CCCCC1 (stereo not drawn) | 160 to 161.5 |  |  |  | 
C[Si](C)(C)C(CN)CC(=O)O (stereo not drawn) [Compound A, 4-amino-3-(trimethylsilyl)butanoic acid] | 199 to 201 | 6.2 ± 0.4 | 7.8 ± 0.5 | 35 | 
